According to publication PMC11680592 (Scientific Reports, 2024):

Columns and labels:
yeast α-glucosidase = yeast α-glucosidase (Saccharomyces cerevisiae, UniProt P53341); experiment: In vitro α-glucosidase inhibition assay; format: biochemical; settings: for Fold decrease of anti-α-glucosidase activity relative to compound 10e: compared with 4-ethylphenyl derivative 10e; for Fold decrease of inhibitory activity relative to compound 10g: compared with 2,6-dimethyl derivative 10g; for Fold increase of inhibitory activity relative to compound 10m: compared with 4-nitro derivative 10m
α-glucosidase = α-glucosidase (Saccharomyces cerevisiae, UniProt P53341); experiment: Kinetic study of α-glucosidase inhibition; format: biochemical, yeast
α-glucosidase, sequence (P53341 whole entry): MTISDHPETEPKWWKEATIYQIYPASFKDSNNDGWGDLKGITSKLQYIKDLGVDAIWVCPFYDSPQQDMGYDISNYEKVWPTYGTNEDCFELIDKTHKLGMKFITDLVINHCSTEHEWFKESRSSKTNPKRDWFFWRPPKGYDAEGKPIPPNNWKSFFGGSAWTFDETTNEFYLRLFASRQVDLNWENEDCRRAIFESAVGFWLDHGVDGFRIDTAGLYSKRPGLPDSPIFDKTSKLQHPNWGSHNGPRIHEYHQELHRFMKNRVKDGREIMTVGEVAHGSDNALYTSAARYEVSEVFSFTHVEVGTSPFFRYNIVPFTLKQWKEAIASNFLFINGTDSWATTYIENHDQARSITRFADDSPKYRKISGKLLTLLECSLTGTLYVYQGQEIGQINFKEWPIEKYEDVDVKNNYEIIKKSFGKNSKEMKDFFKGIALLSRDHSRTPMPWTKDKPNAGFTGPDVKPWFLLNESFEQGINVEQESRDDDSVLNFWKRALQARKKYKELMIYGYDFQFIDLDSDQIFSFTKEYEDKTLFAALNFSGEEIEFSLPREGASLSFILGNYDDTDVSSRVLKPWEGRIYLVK

yeast α-glucosidase, sequence (P53341 whole entry): as above

Compound: NC(=S)N/N=C/c1cc2ccccc2nc1SCc1cn(CC(=O)Nc2ccccc2)nn1 [Compound 10a, (E)-2-(4-(((3-((2-Carbamothioylhydrazineylidene)methyl)quinolin-2-yl)thio)methyl)-1H-1,2,3-triazol-1-yl)-N-phenylacetamide]
- Fold decrease of anti-α-glucosidase activity relative to compound 10e (yeast α-glucosidase): 5.38 folds

Compound: Cc1ccccc1NC(=O)Cn1cc(CSc2nc3ccccc3cc2/C=N/NC(N)=S)nn1 [Compound 10b, (E)-2-(4-(((3-((2-Carbamothioylhydrazineylidene)methyl)quinolin-2-yl)thio)methyl)-1H-1,2,3-triazol-1-yl)-N-(o-tolyl)acetamide]
- Fold decrease of inhibitory activity relative to compound 10g (yeast α-glucosidase): 2.3 folds

Compound: Cc1ccc(NC(=O)Cn2cc(CSc3nc4ccccc4cc3/C=N/NC(N)=S)nn2)cc1 [Compound 10d, (E)-2-(4-(((3-((2-Carbamothioylhydrazineylidene)methyl)quinolin-2-yl)thio)methyl)-1H-1,2,3-triazol-1-yl)-N-(p-tolyl)acetamide]
- Fold decrease of anti-α-glucosidase activity relative to compound 10e (yeast α-glucosidase): 6.97 folds

Compound: Cc1cccc(NC(=O)Cn2cc(CSc3nc4ccccc4cc3/C=N/NC(N)=S)nn2)c1C [Compound 10f, (E)-2-(4-(((3-((2-Carbamothioylhydrazineylidene)methyl)quinolin-2-yl)thio)methyl)-1H-1,2,3-triazol-1-yl)-N-(2,3-dimethylphenyl)acetamide]
- Fold decrease of inhibitory activity relative to compound 10g (yeast α-glucosidase): 1.6 folds

Compound: NC(=S)N/N=C/c1cc2ccccc2nc1SCc1cn(CC(=O)Nc2cccc([N+](=O)[O-])c2)nn1 [Compound 10k, (E)-2-(4-(((3-((2-Carbamothioylhydrazineylidene)methyl)quinolin-2-yl)thio)methyl)-1H-1,2,3-triazol-1-yl)-N-(3-nitrophenyl)acetamide]
- Fold increase of inhibitory activity relative to compound 10m (yeast α-glucosidase): 2.58 folds

Compound: Cc1cc([N+](=O)[O-])ccc1NC(=O)Cn1cc(CSc2nc3ccccc3cc2/C=N/NC(N)=S)nn1 [Compound 10l, (E)-2-(4-(((3-((2-Carbamothioylhydrazineylidene)methyl)quinolin-2-yl)thio)methyl)-1H-1,2,3-triazol-1-yl)-N-(2-methyl-4-nitrophenyl)acetamide]
- Fold increase of inhibitory activity relative to compound 10m (yeast α-glucosidase): 1.82 folds

Compound: NC(=S)N/N=C/c1cc2ccccc2nc1SCc1cn(CC(=O)NCCc2ccccc2)nn1 [Compound 10n, (E)-2-(4-(((3-((2-Carbamothioylhydrazineylidene)methyl)quinolin-2-yl)thio)methyl)-1H-1,2,3-triazol-1-yl)-N-phenethylacetamide]
- Improving the inhibitory effect (times more potent than acarbose) (yeast α-glucosidase): 15.5
- Ki (α-glucosidase): 48.1 µM
- Mode of α-glucosidase inhibition (α-glucosidase; Lineweaver–Burk plot, inhibitor 0, 12.1, 24.2, 48.4 µM): competitive α-glucosidase inhibitor
